Reference: article PMC9860869, “First Phytochemical Profiling and In-Vitro Antiprotozoal Activity of Essential Oil and Extract of Plagiochila porelloides” (Molecules, 2023)
One block for each compound: values may come before it.

Experiments:
[1] = tested on: Trypanosoma brucei brucei (bloodstream forms); test: In vitro test for antitrypanosomal activity; type: cell-based; conditions: Tbb bloodstream forms, pure compound (positive control), read-out: Antiprotozoal assay IC50 ± SD Tbb
Method: (§1) Trypanosoma brucei brucei (strain 427) bloodstream forms were cultured in vitro in HMI9 medium containing 10% heat-inactivated fetal bovine serum. Leishmania mexicana mexicana promastigotes (MHOM/BZ/84/BEL46) were cultivated in vitro in a semi-defined medium (SDM-79) supplemented with 15% heat-inactivated fetal bovine serum. The human normal fibroblast cell line, WI-38, was cultivated in vitro in DMEM medium containing 4 mM L-glutamine, 1 mM sodium pyruvate supplemented with 10% heat-inactivated fetal bovine serum and penicillin–streptomycin (100 UI/mL to 100 µg/mL). All cells were incubated in a humidified atmosphere with 5% CO2 at 37 °C except the Leishmania promastigotes which were incubated at 28 °C.
(§2) The in vitro test was performed as described previously. Pentamidine isethionate salt (a commercial antileishmanial drug) and suramine sodium salt (a commercial antitrypanosomal drug) were used as positive controls in all experiments with an initial concentration of 10 µg/mL. First, stock solutions of crude extracts and compounds were prepared in DMSO at 20 mg/mL (and 2 mg/mL for positive controls). The solutions were further diluted in medium to give 0.2 mg/mL stock solutions. Essential oil and extracts were tested in eight serial three-fold dilutions (final concentration range: 100–0.05 µg/mL) in 96-well microtiter plates. All tests were repeated three times in duplicate.

[2] = tested on: Leishmania mexicana mexicana promastigotes; test: In vitro test for antileishmanial activity; type: cell-based; conditions: Lmm promastigotes, pure compound (positive control), read-out: Antiprotozoal assay IC50 ± SD Lmm
Method: as §1, §2

[3] = Cytotoxicity assay on J774 cells; type: cell-based, murine; conditions: mouse, J774 macrophage-like cells, pure compound (positive control), read-out: Cytotoxicity IC50 ± SD J774
Method: (§3) The cytotoxicity of the essential oil and extracts on WI-38 and J774 cells was evaluated as previously described from the same stock solutions [45].

[4] = Cytotoxicity assay on WI38 cells; type: cell-based; conditions: human, WI-38 normal fibroblast cells, pure compound (positive control), read-out: Cytotoxicity IC50 ± SD WI38
Method: as §1, §3

- IC50 [1]: 30 ± 4 nM
SMILES: Cc1ccc(C(=O)Nc2ccc(S(=O)(=O)O)c3cc(S(=O)(=O)O)cc(S(=O)(=O)O)c23)cc1NC(=O)c1cccc(NC(=O)Nc2cccc(C(=O)Nc3cc(C(=O)Nc4ccc(S(=O)(=O)O)c5cc(S(=O)(=O)O)cc(S(=O)(=O)O)c45)ccc3C)c2)c1 [Suramine]

SMILES: N=C(N)c1ccc(OCCCCCOc2ccc(C(=N)N)cc2)cc1 [Pentamidine]
- IC50 [2]: 70 ± 4 nM

SMILES: CC[C@@]1(O)C(=O)OCc2c1cc1n(c2=O)Cc2cc3ccccc3nc2-1 [Camptothecin]
- IC50 [3]: 10 ± 1 nM
- IC50 [4]: 31 ± 2 nM
